Five compounds from patent publication US5773005A, “Purified flavonoid and diterpene 5α-reductase inhibitors from thuja orientalis for androgen-related diseases” (priority 1995, dated 1998) can be followed below.

In experiment [1] the test system is male pattern baldness in stage V. Briefly: Therapeutic effect on male pattern baldness in stage V, scored (Example 10). Type of experiment: in vivo, human. Also on record: key: 10: alopecic area decreased to 1/5 or less and hair density increased by 2/3 or more; 7: alopecic area decreased to 1/3 or less and hair density increased by 1/3 or more; 4: alopecic area decreased to 1/2 or less and hair density increased by 1/5 or more; alopecic area decreased by 20% and hair density increased by 10% or more; 1: alopecic area hardly changed but hair density increased definitely; 0: no change at all. Particulars: formula with 1% diterpene, twice a day; for Score, 0 mo.: 0 months; for Score, 1 mo.: 1 month; for Score, 2 mo.: 2 months; for Score, 4 mo.: 4 months; for Score, 6 mo.: 6 months. On the procedure: Diterpenes of the invention were evaluated for their therapeutic effects on male pattern baldness in stage V. The curatives were prepared in accordance with the formula set forth in Table 11. | Ethanol 50% | Propylene glycol | 10% | HCO-60 3% | Diterpene 1% | Purified water | 36% The curatives were applied to the bald area of male volunteers (aged 27-45) in five groups each consisting of 5 cases. The application was done daily on a twice-a-day basis and continued for 6 months. The therapeutic efficacy was evaluated by the following criteria based on the decrease in the area of the parietal alopecic lesion and the density of regrowing hairs: 10 (alopecic area decreased to 1/5 or less and hair density increased by 2/3 or more); 7 (alopecic area decreased to 1/3 or less and hair density increased by 1/3 or more); 4 (alopecic area decreased to 1/2 or less and hair density increased by 1/5 or more); 2 (alopecic area decreased by 20% and hair density increased by 10% or more); 1 (alopecic area hardly changed but hair density increased definitely); 0 (no change at all).

The subject of experiment [2] is androgen-dependent human prostatic cancer strain HONDA. Briefly: Growth control of androgen-dependent human prostatic cancer strain HONDA in nude mice (Example 15). Type of experiment: in vivo, human (transplanted in BALB/CA-nu/nu mice). Particulars: once a day, 28 days; for control of tumor growth (HONDA): peroral in 0.5% CMC. How it is done: Seven-week old BALB/CA-nu/nu mice were transplanted with androgen-dependenthuman prostatic cancer strain HONDA beneath the dorsal skin and 6-week old BALB/CA-nu/nu mice were transplanted with androgen-dependent rat prostatic cancer strain […] beneath the dorsal skin. When the respective tumors grew to a specified size, the animals were divided into test and control groups. The test groups were administered with suspensions of trans-communic acid and flutamide in 0.5% CMC. The control groups were administered with 0.5% CMC alone. The drugs and the vehicle were administered perorally via an oral probe. The administration was repeated daily for 28 consecutive days on a once-a-day basis. The tumor volume (mm^3) was calculated by the formula of major axis (mm) × the square of minor axis (mm^2)/2.

Another experiment has as its system acne patients. Kind of experiment: Treatment of acne patients with diterpene lotion, scored (Example 9). Type of experiment: in vivo, human. Particulars: lotion with 1% diterpene, twice a day, group score of 6 patients (3 cured completely, 2 half cured, 1 cured 30%, 0 not cured), highest 18; for Score, 1 mo.: 1 month; for Score, 2 mo.: 2 months. On the procedure:
Patients in their twenties who were suffering from acne were divided into five groups each consisting of 3 males and 3 females and treated with a lotion of the following formula prepared in accordance with the invention. |Ethanol 50% |1,3-Butylene glycol | 20% |HCO-60 3% |Diterpene 1% |Purified water 26% The lotion was applied to the diseased part of a patient's face after washing with takallophene soap and the treatment was conducted daily on a twice-a-day basis for a period of 2 months. The acne in each patient was diagnosed as being moderate and a mixture of comedones (primarily whiteheads), papules and pustules. The results were evaluated by the following criteria: 3, cured completely; 2, half cured; 1, cured 30%; 0, not cured. The highest score was 18 and the lowest score was 0.

Experiment [3] concerns androgen-dependent rat prostatic cancer strain R3327-G. Kind of experiment: Growth control of androgen-dependent rat prostatic cancer strain R3327-G in nude mice (Example 15). Type of experiment: in vivo, rat (transplanted in BALB/CA-nu/nu mice). The conditions noted are these: castrated mice given 25 mg testosterone enanthat per head; peroral, once a day, 28 days. On the procedure: Seven-week old BALB/CA-nu/nu mice were transplanted with androgen-dependenthuman prostatic cancer strain HONDA beneath the dorsal skin and 6-week old BALB/CA-nu/nu mice were transplanted with androgen-dependent rat prostatic cancer strain R3327-G beneath the dorsal skin. When the respective tumors grew to a specified size, the animals were divided into test and control groups. The test groups were administered with suspensions of trans-communic acid and flutamide in 0.5% CMC. The control groups were administered with 0.5% CMC alone. The drugs and the vehicle were administered perorally via an oral probe. The administration was repeated daily for 28 consecutive days on a once-a-day basis. The tumor volume (mm^3) was calculated by the formula of major axis (mm) × the square of minor axis (mm^2)/2.
The growth of cancer strain R3327-G was not controlled in castrated mice when they were administered 25 mg of testosterone enanthat per head concurrently with the cancer transplantation.

The next experiment deals with hirsute male volunteers. Briefly: Hair regrowth on wax-depilated legs of hirsute male volunteers (Example 13). It is filed as in vivo, human. Particulars: 0.1% in 50% ethanol, twice a day, 3 months, control section indistinguishable from surrounding area. How it is done: An experiment was conducted on 5 hirsute male volunteers aged 25-48. The center of each straight leg was depilated with wax to create a lesion about 2 cm wide and 3 cm long. […] The application was done daily on a twice-a-day basis for 3 consecutive months.

Experiment [4] has as its system women suffering from idiopathic hirtuism. Briefly: Women suffering from idiopathic hirsutism, depilated right forearm (Example 14). Particulars: 0.1% in 50% ethanol, twice a day. It is filed as in vivo, human. How it is done: Five women (aged 20-35) suffering from idiopathic hirtuism were treated with 0.1% trans-communic acid in 50% ethanol that was applied daily to a wax depilated area of the right forearm on a twice-a-day basis. Depilation was repeated every other month until the end of the experiment.
Measurements were conducted on the hairs attached to the cloth used for wax depilation.

Another experiment has as its system male hirsute volunteers. Briefly: Suppression of hair regrowth in male hirsute volunteers, wax-depilated inferior limbs (Example 5). Type of experiment: in vivo, human. The conditions noted are these: 1% in 50% alcohol.
For experiment [5], the system named is male pattern baldness in stage V. Kind of experiment: Efficacy against male pattern baldness in stage V, male volunteers (Example 4). Type of experiment: in vivo, human. Particulars: 1% in 50% alcohol, twice a day, 4 months.
Excerpt: The 5α-reductase inhibitors extracted from Thuja orientalis were examined for their efficacy against male pattern baldness in stage V. The test samples were components A, B and C, as well as the terpenoid isolated from component A and the (iso)scutellarein isolated from component B, which were each dissolved at a concentration of 1% in 50% alcohol. These samples were daily applied on a twice-a-day basis for a period of 4 months to the bald heads of 27-45 year old male volunteers in five groups each consisting of 5 cases.

In the case of `CC(C)C(=O)Nc1ccc([N+](=O)[O-])c(C(F)(F)F)c1` [Flutamide, reference compound], in experiment [1], the “Score, 0 mo.” value stood at 0; the “Score, 1 mo.” value is 1; the “Score, 2 mo.” value is listed as 2; the “Score, 4 mo.” value is listed as 2. Besides, the “Score, 6 mo.” value in experiment [1] was determined as 4. In addition, the “control of tumor growth (HONDA)” value in experiment [2] was “effective in tumor control”. Also, the “efficacy of flutamide relative to trans-communic acid (HONDA)” value in experiment [2] (peroral) is “considerably weaker than that of trans-communic acid”. Further, in the experiment with acne patients, the “Score, 1 mo.” value came out at 4 and the “Score, 2 mo.” value is reported as 8.
Consider `C=C/C(C)=C/CC1C(=C)CCC2C(C)(CO)CCCC12C` (stereo not drawn) [Sample III, (E)8(17),12,14-labdatrien-19-ol], for which, in experiment [1], the “Score, 0 mo.” value was determined as 0; the “Score, 1 mo.” value was 0; the “Score, 2 mo.” value amounted to 4; the “Score, 4 mo.” value was 7. Also, in experiment [1], the “Score, 6 mo.” value worked out at 10. Further, in the experiment with acne patients, the “Score, 1 mo.” value was 9 and the “Score, 2 mo.” value is recorded as 18.
With `C=C/C(C)=C/CC1C(=C)CCC2C(C)(C)CCCC12C` (stereo not drawn) [Sample II, (E)8(17),12,14-labdatriene], in experiment [1], the “Score, 0 mo.” value is 0; the “Score, 1 mo.” value is recorded as 1; the “Score, 2 mo.” value was found to be 4; the “Score, 4 mo.” value is 7. In addition, in experiment [1], the “Score, 6 mo.” value came to 10. Also, in the experiment on acne patients, the “Score, 1 mo.” value was determined as 10 and the “Score, 2 mo.” value is listed as 18.
Turning to `C=C/C(C)=C/CC1C(=C)CCC2C(C)(C(=O)O)CCCC12C` (stereo not drawn) [Sample I, (E)8(17),12,14-labdatrien-19-oic acid], in experiment [3], the “control of tumor growth (R3327-G)” value is “could effectively control the growth of cancer in a dose-dependent manner” and the “efficacy relative to flutamide (R3327-G)” value was “considerably stronger than that of flutamide”. Moreover, the “Regrowth of hair, test section, case A” value in the experiment on hirsute male volunteers (case A) was “No regrowth of hair”. For the same compound, in the experiment with hirsute male volunteers (case B), the “Regrowth of hair, test section, case B” value was “No regrowth of hair”. Besides, the “Regrowth of hair, test section, case C” value with hirsute male volunteers (case C) was “Regrowth of a few hair”. Also, the “Regrowth of hair, test section, case D” value with hirsute male volunteers (case D) is given as “No regrowth of hair”. Also, in the experiment with hirsute male volunteers (case E), the “Regrowth of hair, test section, case E” value is given as “No regrowth of hair”. For the same compound, in experiment [1], the “Score, 0 mo.” value amounted to 0; the “Score, 1 mo.” value stood at 1; the “Score, 2 mo.” value amounted to 4; the “Score, 4 mo.” value was found to be 7. The “Score, 6 mo.” value in experiment [1] worked out at 10. For the same compound, the “Hair length (peaked at), sixth measurement, case A” value in experiment [4] (case A, before treatment: peaked at ca. 10 mm) was “ca. 10 mm”. The “Hair density, sixth measurement, case A” value in experiment [4] (case A, before treatment: thick) is reported as “sparse”. Moreover, the “Hair length, sixth measurement, case B” value in experiment [4] (case B, before treatment: peaked at ca. 6 mm) is “ca. 1 mm”. Besides, the “Hair density, sixth measurement, case B” value in experiment [4] (case B, before treatment: thick) is on record as “a few”. Further, the “Hair length, sixth measurement, case D” value in experiment [4] (case D, before treatment: peaked at ca. 8 mm) is “ca. 2 mm”. Further, the “Hair density, sixth measurement, case D” value in experiment [4] (case D, before treatment: thick) is given as “a few”. Moreover, the “control of tumor growth (HONDA)” value in experiment [2] is reported as “could control the growth of this cancer significantly in a dose-dependent manner”. Besides, in experiment [2] (trans-communic acid 20 mg/kg, peroral), the “tumor size at 20 mg/kg vs flutamide 200 mg/kg (HONDA)” value is recorded as “almost comparable to that of the group administered with 200 mg/kg of flutamide”. Also, in the experiment on acne patients, the “Score, 1 mo.” value was 8 and the “Score, 2 mo.” value was 18.
Turning to (iso)scutellarein, the “regrowth of hair as compared to the control section” value in the experiment with male hirsute volunteers (topical, control 50% alcohol alone) is on record as “significantly suppressed”. Also, the “regrowth of hair in the test sections when the experiment ended” value in the experiment on male hirsute volunteers (3 months) is given as “barely recognizable”. In addition, the regrowth of hair entry in experiment [5] is “pronounced regrowth of hair”.
